{
  "source": "patent US20230020507A1",
  "about": "“COMPOUND AND USE THEREOF IN TREATING AUTOIMMUNE DISEASES” (PARENCHYMA BIOTECH INC., priority 2019, published 2023)",
  "key": {"[1]": {"test_system": "Foxp3+ regulatory T cells", "assay": "In vitro regulatory T cell (Foxp3+ Treg) production from human peripheral blood CD4 T cells", "assay_type": "cell-based", "settings": "anti-CD3/anti-CD28, TGFβ-1, IL-2, 2.5 μM, 7 days", "procedure": "Human peripheral blood (AllCells) and phosphate buffered saline (PBS) were mixed in a ratio of 1:1 to prepare a mixture, followed by allowing the mixture to slowly rise so as not to be mixed into the upper layer of Histopaque (Sigma). After centrifugation at 350 g for 20 minutes, only the monocyte layer in the middle layer was collected and washed with HBSS (Hanks' Balanced Salt Solution, Gibco®). After washing with MACS buffer (Miltenyi Biotec) once more to obtain T-cells, positive selection (autoMACS seperator, Miltenyi Biotec) was performed with CD4 Microbeads (Miltenyi Biotec). The T-cells collected by the above method were prepared by resuspending the cells in RPMI-fetal bovine serum (FBS) 10%+2-ME (mercaptoethanol) medium at 5×10^5/ml. For T-cell activation, 10 μg/ml anti-CD3 (eBioscience™) was dispensed by 150 μl into a 48-well plate, reacted in a cell incubator (37° C., 5% CO2 incubator) for 3 hours, and washed with phosphate buffered saline to prepare the plate. 250 μl of resuspended T-cells was dispensed onto the prepared plate, and each well was treated with 2 μg/ml of anti-CD28 (eBioscience™), 5 ng/ml of TGFβ-1 (R&D systems), and 50 U/ml of IL-2 (Miltenyi Biotec). Each 5 μl of compounds at a concentration of 2.5 μM diluted in RPMI+2ME medium was used for treatment, followed by culturing the same in a cell incubator (37° C., 5% CO2 incubator) for 7 days. As a control, 5 μl of 0.05% dimethylsulfoxide (DMSO)/RPMI medium was used for treatment. After 7 days, in order to confirm effects of producing regulatory T cells, the cultured cells were recovered to determine the presence of Foxp3 protein.\nThe recovered cells were placed in a 5 ml FACS tube (BD Falcon) and washed with 1 ml of phosphate buffered saline. The cells were resuspended in 0.1 ml of FACS buffer (0.1% NaN3, 1% FBS) and treated with 1 μg of human immunoglobulin G (Human IgG, Sigma) to prevent non-specific binding of the antibody. After reacting at 4° C. for 15 minutes, the cells were washed with FACS buffer. Then, 1 ml of Fixation/Permeabilization solution (eBioscience™) was added to the FACS tube containing each sample, followed by reaction at 4° C. for 1 hour. Thereafter, the product was washed twice with a Permeabilization buffer (eBioscience™). Then, 0.25 μg of Foxp3 monoclonal antibody (eBioscience™) was used for treatment, followed by staining the sample for 4 to 30 minutes. The cells were washed twice with the permeabilization buffer, suspended in 0.3 ml of FACS buffer, and measured by flow cytometry."}, "[2]": {"test_system": "C57BL/6 mice with autoimmune encephalomyelitis (EAE)", "assay": "Experimental autoimmune encephalomyelitis (EAE) model of multiple sclerosis, severity index", "assay_type": "in vivo, mouse", "settings": "20 mg/kg intraperitoneally daily 12th to 17th day", "procedure": "On day 0, myelin oligodendrocyte glycoproteins 35-55 (MOG 35-55, Peptron) (200 μg), heat-killed Mycobacterium tuberculosis (Difco, Cat No. 231141) (500 μg), and adjuvant (Complete Freund's adjuvant, Sigma Aldrich, Cat No. F5506) were mixed together and then submerged for 7 minutes. After subcutaneous injection of 100 μl of the submerged peptide into both flanks of each of C57BL/6 mice (7 weeks old, female, 17±2 g), 100 μl of pertussis toxin (Sigma Aldrich. Cat No. P2980) (200 ng) was administered intravenously to the tail.\nOn the 2nd day of the experiment, the same amount of pertussis toxin was administered intravenously. The mice were checked for immersion leaking from the injected site, and visually observed from the 7th day of the experiment in order to confirm the onset of multiple sclerosis.\nThe multiple sclerosis index was visually observed and recorded at an interval of 2 days from the 7th day of the experiment in the severity index system classified into 0-5 stages, and autoimmune encephalomyelitis symptoms were indexed according to the following items (see Table 4)."}, "[3]": {"test_system": "IL-1β, IL-6, IL-17A, TNF-α, IL-10 and Foxp3 expression in colon lesions", "assay": "mRNA expression of inflammatory and immunomodulatory factors in colon of DSS mice (real-time PCR)", "assay_type": "in vivo, mouse", "settings": "20 mg/kg oral, 15th day, compared to solvent control", "excerpt": "On the 15th day of the experiment, the colon of the mouse was excised to prepare an mRNA sample. In order to extract mRNA, the colon tissue was ground with a homogenizer to acquire a homogeneous suspension. […] From the isolated RNA, cDNA was synthesized by reverse transcription followed by confirming the expression of inflammatory cytokines through real-time polymerase chain reaction (PCR) using iQ SYBR-Green Supermix (Bio-rad) in the CFX96 (Bio-rad) detection system. Relative values of the enzyme expression levels were compared by the ΔΔct method using GAPDH as a control enzyme. Herein, one (1) fold was set using the normal mouse colon as a control.\nThe real-time polymerase chain reaction was implemented under the conditions of cycles at an annealing temperature of 58′° C. and the following primer sequences were used."}, "[4]": {"test_system": "C57BL/6 mice with DSS-induced inflammatory bowel disease", "assay": "DSS-induced inflammatory bowel disease model, severity index and colon weight:length ratio", "assay_type": "in vivo, mouse", "settings": "20 mg/kg oral daily, compared to solvent control; for inflammatory bowel disease severity index: 2nd to 11th day, 10th day of the experiment; for colon weight:length ratio (intestinal inflammation): 15th day of the experiment", "procedure": "The 1.5% DSS solution was changed at an interval of 2 days. Sterile distilled water was provided for drinking from the 8th day of the experiment. Body weight and severity index were measured at an interval of 2 days from the 0th day of the experiment in order to confirm the onset of inflammatory bowel disease.\n20 mg/kg of the compound per mouse was completely dissolved in DMSO corresponding to 10% (v/v) of the administered dose, and then diluted in a cremophor EL-phosphate buffered saline mixture in order to produce the final DMSO:Cremophor EL:phosphate buffered saline (1:1:8, v/v/v), followed by oral administration of 200 μl daily for a total of 10 times from the 2nd to 11th days of the experiment. An inflammatory bowel disease severity index was visually observed and recorded at an interval of 2 days according to a severity index system classified into 0 to 10 levels.\nInflammatory bowel disease symptoms were evaluated by summing the scores of three items according to the following items (Table 3)."}, "[5]": {"test_system": "IFN-γ, IL-17A, IL-1β, IL-10 and Foxp3 expression in spinal cord lesions", "assay": "mRNA expression of inflammatory and immunomodulatory factors in spinal cord of EAE mice (real-time PCR)", "assay_type": "in vivo, mouse", "settings": "20 mg/kg i.p., 42nd day, compared to solvent control", "excerpt": "On the 42nd day of the experiment, the spinal cord of the mouse was excised to prepare an mRNA sample. In order to extract mRNA, the spinal cord tissue was ground with a homogenizer to obtain a homogeneous suspension. […] Then, cDNA was synthesized from the isolated RNA by reverse transcription, and the expression of inflammatory cytokines was investigated through real-time polymerase chain reaction (PCR) using iQ SYBR-Green Supermix (Bio-rad) in the CFX96 (Bio-rad) detection system. Relative values of the enzyme expression levels were compared by the ΔΔct method using GAPDH as a control enzyme. Herein, one (1) fold was set using the WT mouse spinal cord as a control.\nThe real-time polymerase chain reaction was implemented under the conditions of cycles at an annealing temperature of 58° C., and the following primer sequences were used."}, "[6]": {"settings": "scale 0-5, solvent control 3.33±0.17"}},
  "data": [
    {"smiles": "O=C(Cc1c[nH]c2ccccc12)Nc1cc(Cl)cc(Cl)c1", "note": "[Compound 81, N-(3,5-dichlorophenyl)-2-(1H-indol-3-yl)acetamide]", "values": [
      {"measurement": "generation of Foxp3+ regulatory T cells", "setting": "[1]", "result": "promoted"}
    ]},
    {"smiles": "CN(C(=O)Cc1c[nH]c2ccc(Cl)cc12)c1nc2ccccc2s1", "note": "[Compound 47]", "values": [
      {"measurement": "generation of Foxp3+ regulatory T cells", "setting": "[1]", "result": "promoted"}
    ]},
    {"smiles": "Cc1nc(NC(=O)Cc2c[nH]c3ccc(Cl)cc23)ccc1Br", "note": "[Compound 8, N-(5-bromo-6-methylpyridin-2-yl)-2-(5-chloro-1H-indol-3-yl)acetamide]", "values": [
      {"measurement": "treatment effects on EAE severity index compared to solvent control from the 16th day, maintained after administration was stopped", "setting": "[2]", "result": "statistically significant treatment effects"},
      {"measurement": "severity index (EAE), 18th day, acute reaction period", "setting": "[2]; [6]", "result": "1.17±0.56"},
      {"measurement": "severity index (EAE), 36th day, chronic reaction period", "setting": "[2]; [6]", "result": "1.17±0.56"},
      {"measurement": "expression level of Foxp3 in the colon lesion", "setting": "[3]", "result": "significantly increased"},
      {"measurement": "expression level of IL-1β in colon lesions", "setting": "[3]", "result": "significantly reduced"},
      {"measurement": "expression level of IL-6 in colon lesions", "setting": "[3]", "result": "significantly reduced"},
      {"measurement": "expression level of IL-10 in the colon lesion", "setting": "[3]", "result": "significantly increased"},
      {"measurement": "expression level of IL-17A in colon lesions", "setting": "[3]", "result": "significantly reduced"},
      {"measurement": "expression level of TNF-α in colon lesions", "setting": "[3]", "result": "significantly reduced"},
      {"measurement": "generation of Foxp3+ regulatory T cells", "setting": "[1]", "result": "promoted"},
      {"measurement": "inflammatory bowel disease severity index", "setting": "[4]", "result": "statistically significant therapeutic effects"},
      {"measurement": "colon weight:length ratio (intestinal inflammation)", "setting": "[4]", "result": "significantly suppressed"},
      {"measurement": "expression level of Foxp3 in spinal cord lesions", "setting": "[5]", "result": "significantly increased"},
      {"measurement": "expression level of IFN-γ in the spinal cord lesion", "setting": "[5]", "result": "significantly reduced"},
      {"measurement": "expression level of IL-1β in the spinal cord lesion", "setting": "[5]", "result": "significantly reduced"},
      {"measurement": "expression level of IL-10 in spinal cord lesions", "setting": "[5]", "result": "significantly increased"},
      {"measurement": "expression level of IL-17A in the spinal cord lesion", "setting": "[5]", "result": "significantly reduced"}
    ]},
    {"smiles": "Cc1nc(NC(=O)Cc2c[nH]c3ccccc23)ccc1Br", "note": "[Compound 5, N-(5-bromo-6-methylpyridin-2-yl)-2-(1H-indol-3-yl)acetamide]", "values": [
      {"measurement": "generation of Foxp3+ regulatory T cells", "setting": "[1]", "result": "promoted"}
    ]},
    {"smiles": "O=C(Cc1c[nH]c2ccccc12)Nc1ccc(Cl)c(F)n1", "note": "[Compound 23, N-(5-chloro-6-fluoropyridin-2-yl)-2-(1H-indol-3-yl)acetamide]", "values": [
      {"measurement": "generation of Foxp3+ regulatory T cells", "setting": "[1]", "result": "promoted"}
    ]},
    {"smiles": "CN(C(=O)Cc1c[nH]c2ccc(F)cc12)c1nc2ccccc2s1", "note": "[Compound 60, N-(benzo[di]thiazol-2-yl)-2-(5-fluoro-1H-indol-3-yl)-N-methyl acetamide]", "values": [
      {"measurement": "inflammatory bowel disease severity index", "setting": "[4]", "result": "statistically significant therapeutic effects"},
      {"measurement": "colon weight:length ratio (intestinal inflammation)", "setting": "[4]", "result": "significantly suppressed"}
    ]},
    {"smiles": "Cc1nc(NC(=O)Cc2c[nH]c3ccc(F)cc23)ccc1Br", "note": "[Compound 2, N-(5-bromo-6-methylpyridin-2-yl)-2-(5-fluoro-1H-indol-3-yl)acetamide]", "values": [
      {"measurement": "generation of Foxp3+ regulatory T cells", "setting": "[1]", "result": "promoted"}
    ]},
    {"smiles": "COc1cc(NC(=O)Cc2c[nH]c3ccccc23)cc(OC)c1OC", "note": "[Compound 71, 2-(1H-indol-3-yl)-N-(3,4,5-trimethoxyphenyl)acetamide]", "values": [
      {"measurement": "generation of Foxp3+ regulatory T cells", "setting": "[1]", "result": "promoted"}
    ]},
    {"smiles": "CN(C(=O)Cc1c[nH]c2ccccc12)c1nc2ccccc2s1", "note": "[Compound 44, N-(benzo[di]thiazol-2-yl)-2-(1H-indol-3-yl)-N-methyl acetamide]", "values": [
      {"measurement": "generation of Foxp3+ regulatory T cells", "setting": "[1]", "result": "promoted"},
      {"measurement": "inflammatory bowel disease severity index", "setting": "[4]", "result": "statistically significant therapeutic effects"},
      {"measurement": "colon weight:length ratio (intestinal inflammation)", "setting": "[4]", "result": "significantly suppressed"}
    ]}
  ]
}
